{
  "source": "paper PMC5765510",
  "about": "“One pot synthesis of GDP‐mannose by a multi‐enzyme cascade for enzymatic assembly of lipid‐linked oligosaccharides” (Biotechnology and Bioengineering, 2017)",
  "format_in_all_cases": "biochemical",
  "key": {"His6-Glk": {"target": "T1, His6-Glk (Escherichia coli, UniProt P0A6V8)", "T1 construct": "N-terminal His6 tag, pET-28a(+), expressed in E. coli BL21-Gold(DE3), IMAC purified, 39 kDa", "T1 sequence (P0A6V8 1-321)": "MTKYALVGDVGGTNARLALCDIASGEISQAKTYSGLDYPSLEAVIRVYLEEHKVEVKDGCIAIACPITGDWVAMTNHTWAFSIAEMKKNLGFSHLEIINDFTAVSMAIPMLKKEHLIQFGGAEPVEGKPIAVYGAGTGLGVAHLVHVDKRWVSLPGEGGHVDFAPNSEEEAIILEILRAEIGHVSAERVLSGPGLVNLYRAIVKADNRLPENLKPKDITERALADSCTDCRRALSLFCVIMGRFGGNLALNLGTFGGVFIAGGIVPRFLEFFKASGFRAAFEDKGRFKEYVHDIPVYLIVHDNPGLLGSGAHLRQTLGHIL", "assay": "man6P formation, HPAEC-UV/CD", "details": "10 mM MgCl2, pH 7.5, 30 °C"}, "[1]": {"target": "T2, ManB-His6 (ManB-His6/ManC) (Escherichia coli, UniProt P24175)", "T2 construct": "C-terminal His6 ManB co-expressed and co-purified with untagged ManC, E. coli BL21-Gold(DE3), 50 kDa; ManB/ManC ratio only estimated 1:1; with Mannose-1-phosphate guanylyltransferase", "T2 sequence (P24174 whole entry)": "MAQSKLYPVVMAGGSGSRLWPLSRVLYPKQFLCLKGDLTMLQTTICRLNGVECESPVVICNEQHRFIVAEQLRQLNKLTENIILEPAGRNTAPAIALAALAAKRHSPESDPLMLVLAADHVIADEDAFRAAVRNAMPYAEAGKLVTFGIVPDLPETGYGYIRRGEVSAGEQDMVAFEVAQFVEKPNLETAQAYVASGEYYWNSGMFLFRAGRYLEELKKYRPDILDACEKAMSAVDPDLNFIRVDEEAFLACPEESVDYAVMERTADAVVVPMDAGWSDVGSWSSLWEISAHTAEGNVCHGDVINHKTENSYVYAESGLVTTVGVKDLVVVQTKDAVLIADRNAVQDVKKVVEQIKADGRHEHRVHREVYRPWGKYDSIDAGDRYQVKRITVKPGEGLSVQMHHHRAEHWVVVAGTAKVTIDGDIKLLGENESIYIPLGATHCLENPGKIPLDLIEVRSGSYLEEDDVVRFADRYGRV", "T2 sequence (P24175 whole entry)": "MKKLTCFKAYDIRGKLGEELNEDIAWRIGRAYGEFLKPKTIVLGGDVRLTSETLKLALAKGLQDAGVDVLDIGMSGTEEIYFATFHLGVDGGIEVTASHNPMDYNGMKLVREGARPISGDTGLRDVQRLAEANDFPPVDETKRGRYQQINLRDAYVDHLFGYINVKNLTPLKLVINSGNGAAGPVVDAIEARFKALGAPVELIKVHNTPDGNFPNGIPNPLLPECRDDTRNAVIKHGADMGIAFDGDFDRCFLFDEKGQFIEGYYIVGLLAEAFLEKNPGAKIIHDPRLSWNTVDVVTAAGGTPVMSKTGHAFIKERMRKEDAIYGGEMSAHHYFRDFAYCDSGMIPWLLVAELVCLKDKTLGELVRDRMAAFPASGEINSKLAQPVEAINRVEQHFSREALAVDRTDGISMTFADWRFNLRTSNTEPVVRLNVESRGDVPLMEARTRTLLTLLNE", "assay": "man1P/man6P equilibrium, HPAEC-CD", "details": "1.8 mM, 0.25 mM glucose-1,6-bisphosphate, 10 mM MgCl2, pH 7.5, 30 °C"}, "1D-Ppk2 (His6-1D-Ppk2)": {"target": "T3, 1D-Ppk2 (His6-1D-Ppk2) (Pseudomonas aeruginosa, UniProt Q9I154)", "T3 construct": "gene PA2428; N-terminal His6 tag, codon-optimised synthetic gene, pET-28a(+), expressed in E. coli BL21-Gold(DE3), IMAC purified, 38 kDa", "T3 sequence (Q9I154 1-304)": "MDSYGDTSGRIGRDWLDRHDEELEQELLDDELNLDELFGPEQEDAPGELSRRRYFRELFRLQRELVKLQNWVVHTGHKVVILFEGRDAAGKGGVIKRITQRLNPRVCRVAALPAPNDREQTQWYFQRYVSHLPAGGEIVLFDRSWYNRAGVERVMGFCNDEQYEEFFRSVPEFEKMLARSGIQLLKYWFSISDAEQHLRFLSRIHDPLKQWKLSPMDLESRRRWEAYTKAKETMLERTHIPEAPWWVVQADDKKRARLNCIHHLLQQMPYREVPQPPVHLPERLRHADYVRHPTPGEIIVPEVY", "assay": "polyphosphate-dependent phosphorylation, HPAEC-UV", "details": "4 mM PolyP14, 10 mM MgCl2, pH 7.5, 30 °C; reversible"}},
  "data": [
    {"molecule": "Nc1ncnc2c1ncn2[C@@H]1O[C@H](COP(=O)(O)OP(=O)(O)OP(=O)(O)O)[C@@H](O)[C@H]1O", "note": "[ATP]", "values": [
      {"measurement": "man6P formation, HPAEC-UV/CD", "setting": "His6-Glk; mannose co-substrate", "result": "conversion of ATP and mannose to man6P and ADP is irreversible"}
    ]},
    {"molecule": "O=P(O)(O)O[C@H]1O[C@H](CO)[C@@H](O)[C@H](O)[C@@H]1O", "note": "[man1P]", "values": [
      {"measurement": "man1P/man6P equilibrium, HPAEC-CD", "setting": "[1]", "result": "equilibrium conversion of man1P to man6P catalyzed by the ManB‐His6/ManC complex"}
    ]},
    {"molecule": "Nc1ncnc2c1ncn2[C@@H]1O[C@H](COP(=O)(O)OP(=O)(O)O)[C@@H](O)[C@H]1O", "note": "[ADP]", "values": [
      {"measurement": "polyphosphate-dependent phosphorylation, HPAEC-UV", "setting": "1D-Ppk2 (His6-1D-Ppk2)", "result": "phosphorylation of ADP and GDP, respectively, by His6‐1D‐Ppk2 are equilibrium reactions"}
    ]},
    {"molecule": "Nc1nc2c(ncn2[C@@H]2O[C@H](COP(=O)(O)OP(=O)(O)O)[C@@H](O)[C@H]2O)c(=O)[nH]1", "note": "[GDP]", "values": [
      {"measurement": "polyphosphate-dependent phosphorylation, HPAEC-UV", "setting": "1D-Ppk2 (His6-1D-Ppk2)", "result": "phosphorylation of ADP and GDP, respectively, by His6‐1D‐Ppk2 are equilibrium reactions"}
    ]},
    {"molecule": "OC[C@H]1OC(O)[C@@H](O)[C@@H](O)[C@@H]1O", "note": "(some centres unmarked) [mannose]", "values": [
      {"measurement": "man6P formation, HPAEC-UV/CD", "setting": "His6-Glk; ATP 1.7 mM, irreversible", "result": "conversion of ATP and mannose to man6P and ADP is irreversible"}
    ]}
  ]
}
